According to ChEMBL document CHEMBL6120971 (J Med Chem, 2024):
Active and inactive are the calls of the source. The calls are words filed in the database; no cut-off is given here.

Legend:
[1] = system: MKN-45; assay: Antiproliferative activity against human MKN-45 cells incubated for 72 hrs by CCK8 assay; format: functional, cell-based; conditions: MKN-45, 72 h
[2] = target: T1, von Hippel-Lindau disease tumor suppressor/Hepatocyte growth factor receptor (Homo sapiens, UniProt P08581+P40337); assay: PROTAC activity at VHL/c-MET in human MKN-45 cells assessed as induction of c-MET degradation by measuring residual activity at 100 nM incubated for 24 hrs by Western blot analysis (reference value: 100 %); format: cell-based
Target sequence in this assay (P40337 whole entry partner): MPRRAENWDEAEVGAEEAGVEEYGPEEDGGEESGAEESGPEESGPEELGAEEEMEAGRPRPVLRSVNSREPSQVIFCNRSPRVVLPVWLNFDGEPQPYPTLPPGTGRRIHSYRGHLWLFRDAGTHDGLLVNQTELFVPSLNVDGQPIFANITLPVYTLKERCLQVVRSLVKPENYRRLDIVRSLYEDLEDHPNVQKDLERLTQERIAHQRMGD
Target sequence in this assay (P08581 25-1390 limits assumed): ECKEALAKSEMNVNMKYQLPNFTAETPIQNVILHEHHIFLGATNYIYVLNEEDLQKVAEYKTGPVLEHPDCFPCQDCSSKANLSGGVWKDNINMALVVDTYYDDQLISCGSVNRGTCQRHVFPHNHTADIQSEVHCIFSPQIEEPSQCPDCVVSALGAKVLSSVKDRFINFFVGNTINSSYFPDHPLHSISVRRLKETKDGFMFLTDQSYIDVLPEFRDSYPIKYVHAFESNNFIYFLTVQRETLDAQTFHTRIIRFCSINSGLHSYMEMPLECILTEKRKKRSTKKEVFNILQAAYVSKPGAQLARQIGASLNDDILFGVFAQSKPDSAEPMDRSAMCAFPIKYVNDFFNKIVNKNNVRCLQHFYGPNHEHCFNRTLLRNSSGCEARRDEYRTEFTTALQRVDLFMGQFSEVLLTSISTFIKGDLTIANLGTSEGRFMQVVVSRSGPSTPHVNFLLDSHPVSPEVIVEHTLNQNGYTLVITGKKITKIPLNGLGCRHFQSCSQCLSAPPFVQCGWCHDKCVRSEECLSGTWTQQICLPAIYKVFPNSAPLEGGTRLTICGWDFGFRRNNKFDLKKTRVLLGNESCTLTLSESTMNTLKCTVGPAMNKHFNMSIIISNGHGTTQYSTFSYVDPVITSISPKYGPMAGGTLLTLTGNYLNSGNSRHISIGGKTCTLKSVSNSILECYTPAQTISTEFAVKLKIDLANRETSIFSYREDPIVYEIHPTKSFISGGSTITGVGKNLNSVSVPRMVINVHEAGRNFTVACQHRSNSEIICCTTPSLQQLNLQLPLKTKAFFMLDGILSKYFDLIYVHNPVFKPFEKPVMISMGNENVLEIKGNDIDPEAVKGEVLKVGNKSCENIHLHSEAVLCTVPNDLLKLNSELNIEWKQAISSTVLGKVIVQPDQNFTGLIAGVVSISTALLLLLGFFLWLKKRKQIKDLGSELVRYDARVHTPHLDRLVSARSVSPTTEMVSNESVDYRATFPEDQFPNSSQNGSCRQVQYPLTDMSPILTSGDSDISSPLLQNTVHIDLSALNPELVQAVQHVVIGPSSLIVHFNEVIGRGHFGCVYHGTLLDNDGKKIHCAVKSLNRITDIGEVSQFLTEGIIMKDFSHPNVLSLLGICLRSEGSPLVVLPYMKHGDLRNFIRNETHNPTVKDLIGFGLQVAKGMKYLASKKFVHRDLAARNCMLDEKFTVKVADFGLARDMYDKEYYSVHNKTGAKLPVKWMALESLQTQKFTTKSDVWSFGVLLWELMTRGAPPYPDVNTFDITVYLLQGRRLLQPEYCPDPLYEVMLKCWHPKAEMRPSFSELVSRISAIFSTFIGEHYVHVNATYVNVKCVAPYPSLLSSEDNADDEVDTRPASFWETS

[3] = target: T1, von Hippel-Lindau disease tumor suppressor/Hepatocyte growth factor receptor; assay: PROTAC activity at VHL/c-MET (unknown origin); format: protein
Target sequence in this assay (P08581 whole entry): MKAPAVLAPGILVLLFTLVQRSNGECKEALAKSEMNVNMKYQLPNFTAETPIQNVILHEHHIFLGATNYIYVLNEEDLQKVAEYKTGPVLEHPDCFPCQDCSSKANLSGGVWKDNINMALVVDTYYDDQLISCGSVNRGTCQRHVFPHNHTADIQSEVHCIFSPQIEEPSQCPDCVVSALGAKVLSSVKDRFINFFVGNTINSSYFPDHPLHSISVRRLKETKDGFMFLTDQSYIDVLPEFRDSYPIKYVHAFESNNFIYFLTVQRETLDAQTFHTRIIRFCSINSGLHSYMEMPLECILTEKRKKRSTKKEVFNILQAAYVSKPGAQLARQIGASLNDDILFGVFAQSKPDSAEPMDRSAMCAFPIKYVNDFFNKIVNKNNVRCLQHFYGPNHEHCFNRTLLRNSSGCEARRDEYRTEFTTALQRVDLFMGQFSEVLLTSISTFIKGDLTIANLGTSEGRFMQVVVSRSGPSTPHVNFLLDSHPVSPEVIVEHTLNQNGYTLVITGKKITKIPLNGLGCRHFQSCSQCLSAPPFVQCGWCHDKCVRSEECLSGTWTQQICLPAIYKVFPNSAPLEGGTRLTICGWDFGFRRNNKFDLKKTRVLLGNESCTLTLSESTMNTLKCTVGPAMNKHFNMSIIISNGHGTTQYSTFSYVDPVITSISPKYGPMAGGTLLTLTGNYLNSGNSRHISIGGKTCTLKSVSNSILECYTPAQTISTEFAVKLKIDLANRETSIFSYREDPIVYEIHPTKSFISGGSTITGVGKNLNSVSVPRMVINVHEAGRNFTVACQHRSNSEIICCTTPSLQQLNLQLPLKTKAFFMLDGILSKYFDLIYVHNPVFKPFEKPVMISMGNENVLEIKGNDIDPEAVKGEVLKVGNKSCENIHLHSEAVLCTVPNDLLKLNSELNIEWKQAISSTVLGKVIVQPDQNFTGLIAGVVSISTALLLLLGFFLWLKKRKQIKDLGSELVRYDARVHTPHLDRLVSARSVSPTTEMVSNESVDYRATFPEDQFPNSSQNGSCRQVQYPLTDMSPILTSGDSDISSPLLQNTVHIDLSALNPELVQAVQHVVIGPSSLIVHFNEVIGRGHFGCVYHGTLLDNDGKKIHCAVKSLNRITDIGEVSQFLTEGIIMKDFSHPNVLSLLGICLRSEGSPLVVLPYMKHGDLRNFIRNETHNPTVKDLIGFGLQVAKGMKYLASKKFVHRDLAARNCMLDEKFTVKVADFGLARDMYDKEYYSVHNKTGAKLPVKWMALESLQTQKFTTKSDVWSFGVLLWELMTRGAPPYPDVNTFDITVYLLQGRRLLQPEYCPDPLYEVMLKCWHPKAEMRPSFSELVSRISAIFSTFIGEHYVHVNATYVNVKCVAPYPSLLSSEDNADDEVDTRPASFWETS
Target sequence in this assay (P40337 whole entry): as the sequence (P40337 whole entry partner) above

[4] = target: T2, Protein cereblon/Hepatocyte growth factor receptor (Homo sapiens, UniProt P08581+Q96SW2); assay: PROTAC activity at CRBN/c-MET in human MKN-45 cells assessed as induction of c-MET degradation at 1000 nM incubated for 24 hrs by Western blot analysis; format: cell-based
[5] = system: MKN-45; assay: Induction of c-MET degradation in human MKN-45 cells assessed as residual activity at 100 nM incubated for 24 hrs by Western blot analysis (reference value: 100 %); format: cell-based
[6] = target: T2, Protein cereblon/Hepatocyte growth factor receptor; assay: PROTAC activity at CRBN/c-MET in human MKN-45 cells assessed as induction of c-MET degradation at 3.125 to 50 nM by Western blot analysis; format: cell-based; conditions: dose 3.125-50 nM
[7] = target: T1, von Hippel-Lindau disease tumor suppressor/Hepatocyte growth factor receptor; assay: PROTAC activity at VHL/c-MET in human MKN-45 cells assessed as induction of c-MET degradation at 100 to 1000 nM incubated for 24 hrs by Western blot analysis relative to control; format: cell-based; conditions: dose 100-1000 nM
Target sequence in this assay (P40337 whole entry partner): as above
Target sequence in this assay (P08581 25-1390 limits assumed): as the sequence (P08581 25-1390 limits assumed) above

T2 sequence (P08581 25-1390 limits assumed): as above
T2 sequence (Q96SW2 whole entry partner): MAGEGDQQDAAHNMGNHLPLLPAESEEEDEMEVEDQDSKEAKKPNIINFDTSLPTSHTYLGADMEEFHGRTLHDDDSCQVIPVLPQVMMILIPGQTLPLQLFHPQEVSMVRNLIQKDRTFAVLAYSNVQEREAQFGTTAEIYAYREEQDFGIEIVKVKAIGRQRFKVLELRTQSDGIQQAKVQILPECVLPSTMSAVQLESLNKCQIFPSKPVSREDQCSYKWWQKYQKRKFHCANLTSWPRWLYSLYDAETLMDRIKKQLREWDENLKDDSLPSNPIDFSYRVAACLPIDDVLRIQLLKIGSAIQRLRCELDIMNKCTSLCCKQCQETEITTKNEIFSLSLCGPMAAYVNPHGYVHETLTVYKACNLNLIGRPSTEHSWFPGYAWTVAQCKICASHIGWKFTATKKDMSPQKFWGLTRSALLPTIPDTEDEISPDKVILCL

| IC50 [1] [nM] | Activity [2] [%] | SMILES | other results |
| --- | --- | --- | --- |
| > 200 | 74 | Cc1ncsc1-c1ccc([C@H](C)NC(=O)[C@@H]2C[C@@H](O)CN2C(=O)[C@@H](NC(=O)CCCCC(=O)N2CCC(COc3cnc(-c4cccc(Cn5nc(-c6cccc(C#N)c6)ccc5=O)c4)nc3)CC2)C(C)(C)C)cc1 | – |
| – | 73 | Cc1ncsc1-c1ccc([C@H](C)NC(=O)[C@@H]2C[C@@H](O)CN2C(=O)[C@@H](NC(=O)COCCOCCOCCNC(=O)c2ccc(-c3cnc4ncc(Cc5ccc6ncccc6c5)n4n3)cc2F)C(C)(C)C)cc1 | – |
| – | 107 | Cc1ncsc1-c1ccc([C@H](C)NC(=O)[C@@H]2C[C@@H](O)CN2C(=O)[C@@H](NC(=O)CCOCCOCCC(=O)N2CCC(n3cc(-c4cnc(N)c(O[C@H](C)c5c(Cl)ccc(F)c5Cl)c4)cn3)CC2)C(C)(C)C)cc1 | – |
| > 200 | 100 | Cc1ncsc1-c1ccc([C@H](C)NC(=O)[C@@H]2C[C@@H](O)CN2C(=O)[C@@H](NC(=O)CCCCC(=O)N2CCC(n3cc(-c4cnc(N)c(O[C@H](C)c5c(Cl)ccc(F)c5Cl)c4)cn3)CC2)C(C)(C)C)cc1 | – |
| – | 61 | Cc1ncsc1-c1ccc([C@H](C)NC(=O)[C@@H]2C[C@@H](O)CN2C(=O)[C@@H](NC(=O)CN2CCN(CCNC(=O)c3ccc(-c4cnc5ncc(Cc6ccc7ncccc7c6)n5n4)cc3F)CC2)C(C)(C)C)cc1 | – |
| 20.5 | 22 | Cc1ncsc1-c1ccc([C@H](C)NC(=O)[C@@H]2C[C@@H](O)CN2C(=O)[C@@H](NC(=O)CCCCCCCCCNC(=O)c2ccc(-c3cnc4ncc(Cc5ccc6ncccc6c5)n4n3)cc2F)C(C)(C)C)cc1 | – |
| – | 79 | Cc1ncsc1-c1ccc([C@H](C)NC(=O)[C@@H]2C[C@@H](O)CN2C(=O)[C@@H](NC(=O)CN2CCN(CCCCCCNC(=O)c3ccc(-c4cnc5ncc(Cc6ccc7ncccc7c6)n5n4)cc3F)CC2)C(C)(C)C)cc1 | – |
| 44.7 | – | Cc1ncsc1-c1ccc([C@H](C)NC(=O)[C@@H]2C[C@@H](O)CN2C(=O)[C@@H](NC(=O)CCCCCCCCNC(=O)c2ccc(-c3cnc4ncc(Cc5ccc6ncccc6c5)n4n3)cc2F)C(C)(C)C)cc1 | – |
| – | 66 | Cc1ncsc1-c1ccc([C@H](C)NC(=O)[C@@H]2C[C@@H](O)CN2C(=O)[C@@H](NC(=O)CCOCCOCCC(=O)N2CCC(COc3cnc(-c4cccc(Cn5nc(-c6cccc(C#N)c6)ccc5=O)c4)nc3)CC2)C(C)(C)C)cc1 | – |
| > 200 | 73 | Cc1ncsc1-c1ccc([C@H](C)NC(=O)[C@@H]2C[C@@H](O)CN2C(=O)[C@@H](NC(=O)CCCCCCCCCCC(=O)N2CCC(n3cc(-c4cnc(N)c(O[C@H](C)c5c(Cl)ccc(F)c5Cl)c4)cn3)CC2)C(C)(C)C)cc1 | – |
| – | 78 | Cc1ncsc1-c1ccc([C@H](C)NC(=O)[C@@H]2C[C@@H](O)CN2C(=O)[C@@H](NC(=O)CN2CCN(CCCCNC(=O)c3ccc(-c4cnc5ncc(Cc6ccc7ncccc7c6)n5n4)cc3F)CC2)C(C)(C)C)cc1 | – |
| 35.5 | 64 | Cc1ncsc1-c1ccc([C@H](C)NC(=O)[C@@H]2C[C@@H](O)CN2C(=O)[C@@H](NC(=O)CCCCCCC(=O)N2CCC(COc3cnc(-c4cccc(Cn5nc(-c6cccc(C#N)c6)ccc5=O)c4)nc3)CC2)C(C)(C)C)cc1 | – |
| > 200 | – | Cc1ncsc1-c1ccc([C@H](C)NC(=O)[C@@H]2C[C@@H](O)CN2C(=O)[C@@H](NC(=O)CCCCCCNC(=O)c2ccc(-c3cnc4ncc(Cc5ccc6ncccc6c5)n4n3)cc2F)C(C)(C)C)cc1 | – |
| – | 123 | Cc1ncsc1-c1ccc([C@H](C)NC(=O)[C@@H]2C[C@@H](O)CN2C(=O)[C@@H](NC(=O)CN2CCN(CC(=O)N3CCC(n4cc(-c5cnc(N)c(O[C@H](C)c6c(Cl)ccc(F)c6Cl)c5)cn4)CC3)CC2)C(C)(C)C)cc1 | – |
| 74.9 | 68 | Cc1ncsc1-c1ccc([C@H](C)NC(=O)[C@@H]2C[C@@H](O)CN2C(=O)[C@@H](NC(=O)CCCCCNC(=O)c2ccc(-c3cnc4ncc(Cc5ccc6ncccc6c5)n4n3)cc2F)C(C)(C)C)cc1 | – |
| – | 70 | Cc1ncsc1-c1ccc([C@H](C)NC(=O)[C@@H]2C[C@@H](O)CN2C(=O)[C@@H](NC(=O)COCCOCCNC(=O)c2ccc(-c3cnc4ncc(Cc5ccc6ncccc6c5)n4n3)cc2F)C(C)(C)C)cc1 | – |
| 47.8 | – | Cc1ncsc1-c1ccc([C@H](C)NC(=O)[C@@H]2C[C@@H](O)CN2C(=O)[C@@H](NC(=O)CCCCCCCCCCNC(=O)c2ccc(-c3cnc4ncc(Cc5ccc6ncccc6c5)n4n3)cc2F)C(C)(C)C)cc1 | – |

The next lines start with the compound.

| SMILES | IC50 [1] [nM] | Activity [2] [%] | other results |
| --- | --- | --- | --- |
| Cc1ncsc1-c1ccc([C@H](C)NC(=O)[C@@H]2C[C@@H](O)CN2C(=O)[C@@H](NC(=O)CCCCCCCCCCC(=O)N2CCC(COc3cnc(-c4cccc(Cn5nc(-c6cccc(C#N)c6)ccc5=O)c4)nc3)CC2)C(C)(C)C)cc1 | 149 | 56 | – |
| Cc1ncsc1-c1ccc([C@H](C)NC(=O)[C@@H]2C[C@@H](O)CN2C(=O)[C@@H](NC(=O)CN2CCN(CCCCCC(=O)N3CCC(COc4cnc(-c5cccc(Cn6nc(-c7cccc(C#N)c7)ccc6=O)c5)nc4)CC3)CC2)C(C)(C)C)cc1 | – | 71 | – |
| Cc1ncsc1-c1ccc([C@H](C)NC(=O)[C@@H]2C[C@@H](O)CN2C(=O)[C@@H](NC(=O)CCOCCOCCOCCOCCC(=O)N2CCC(COc3cnc(-c4cccc(Cn5nc(-c6cccc(C#N)c6)ccc5=O)c4)nc3)CC2)C(C)(C)C)cc1 | – | 62 | – |
| COc1cc2c(Oc3ccc(NC(=O)C4(C(=O)Nc5ccc(F)cc5)CC4)cc3F)ccnc2cc1OCCCOCCCOCCC(=O)N[C@H](C(=O)N1C[C@H](O)C[C@H]1C(=O)NCc1ccc(-c2scnc2C)cc1)C(C)(C)C | – | – | DC50 [3]: > 10 nM |
| O=C(COc1cccc2c1C(=O)N(C1CCC(=O)NC1=O)C2=O)NCCCCCCCCNC(=O)c1ccc(-c2cnc3ncc(Cc4ccc5ncccc5c4)n3n2)cc1F (stereo unspecified) | 15.3 | – | Activity [4]: inactive |
| Cc1ncsc1-c1ccc([C@H](C)NC(=O)[C@@H]2C[C@@H](O)CN2C(=O)[C@@H](NC(=O)CN2CCN(CCCC(=O)N3CCC(n4cc(-c5cnc(N)c(O[C@H](C)c6c(Cl)ccc(F)c6Cl)c5)cn4)CC3)CC2)C(C)(C)C)cc1 | – | 111 | – |
| O=C(COc1cccc2c1C(=O)N(C1CCC(=O)NC1=O)C2=O)NCCCCCCCCCCNC(=O)c1ccc(-c2cnc3ncc(Cc4ccc5ncccc5c4)n3n2)cc1F (stereo unspecified) | 27.3 | – | Activity [4]: inactive |
| CN1CCC(COc2cnc(-c3cccc(Cn4nc(-c5cccc(C#N)c5)ccc4=O)c3)nc2)CC1 | – | – | Activity [5]: 107% |
| Cc1ncsc1-c1ccc([C@H](C)NC(=O)[C@@H]2C[C@@H](O)CN2C(=O)[C@@H](NC(=O)COCCOCCOCCOCCNC(=O)c2ccc(-c3cnc4ncc(Cc5ccc6ncccc6c5)n4n3)cc2F)C(C)(C)C)cc1 | – | 75 | – |
| C[C@@H](Oc1cc(-c2cnn(C3CCNCC3)c2)cnc1N)c1c(Cl)ccc(F)c1Cl | – | – | Activity [5]: 110% |
| Cc1ncsc1-c1ccc([C@H](C)NC(=O)[C@@H]2C[C@@H](O)CN2C(=O)[C@@H](NC(=O)CN2CCN(CCCC(=O)N3CCC(COc4cnc(-c5cccc(Cn6nc(-c7cccc(C#N)c7)ccc6=O)c5)nc4)CC3)CC2)C(C)(C)C)cc1 | – | 61 | – |
| Cc1ncsc1-c1ccc([C@H](C)NC(=O)[C@@H]2C[C@@H](O)CN2C(=O)[C@@H](NC(=O)CCCCCCC(=O)N2CCC(n3cc(-c4cnc(N)c(O[C@H](C)c5c(Cl)ccc(F)c5Cl)c4)cn3)CC2)C(C)(C)C)cc1 | > 200 | 78 | – |
| Cc1ncsc1-c1ccc([C@H](C)NC(=O)[C@@H]2C[C@@H](O)CN2C(=O)[C@@H](NC(=O)CCOCCOCCOCCC(=O)N2CCC(COc3cnc(-c4cccc(Cn5nc(-c6cccc(C#N)c6)ccc5=O)c4)nc3)CC2)C(C)(C)C)cc1 | – | 56 | – |
| Cc1ncsc1-c1ccc([C@H](C)NC(=O)[C@@H]2C[C@@H](O)CN2C(=O)[C@@H](NC(=O)CCCCCCCCCCCNC(=O)c2ccc(-c3cnc4ncc(Cc5ccc6ncccc6c5)n4n3)cc2F)C(C)(C)C)cc1 | 29.1 | 51 | – |
| Cc1ncsc1-c1ccc([C@H](C)NC(=O)[C@@H]2C[C@@H](O)CN2C(=O)[C@@H](NC(=O)CN2CCN(CC(=O)N3CCC(COc4cnc(-c5cccc(Cn6nc(-c7cccc(C#N)c7)ccc6=O)c5)nc4)CC3)CC2)C(C)(C)C)cc1 | – | 40 | – |
| Cc1ncsc1-c1ccc([C@H](C)NC(=O)[C@@H]2C[C@@H](O)CN2C(=O)[C@@H](NC(=O)CCOCCOCCOCCC(=O)N2CCC(n3cc(-c4cnc(N)c(O[C@H](C)c5c(Cl)ccc(F)c5Cl)c4)cn3)CC2)C(C)(C)C)cc1 | – | 106 | – |
| Cc1ncsc1-c1ccc([C@H](C)NC(=O)[C@@H]2C[C@@H](O)CN2C(=O)[C@@H](NC(=O)CN2CCN(CCCCCC(=O)N3CCC(n4cc(-c5cnc(N)c(O[C@H](C)c6c(Cl)ccc(F)c6Cl)c5)cn4)CC3)CC2)C(C)(C)C)cc1 | – | 115 | – |
| CN1C(=O)CCC(N2C(=O)c3ccc(N4CCN(CC5CCN(C(=O)c6ccc(-c7cnc8ncc(Cc9ccc%10ncccc%10c9)n8n7)cc6F)CC5)CC4)cc3C2=O)C1=O (stereo unspecified) | 73.5 | – | Activity [6]: inactive |
| Cc1ncsc1-c1ccc([C@H](C)NC(=O)[C@@H]2C[C@@H](O)CN2C(=O)[C@@H](NC(=O)CCOCCOCCOCCOCCC(=O)N2CCC(n3cc(-c4cnc(N)c(O[C@H](C)c5c(Cl)ccc(F)c5Cl)c4)cn3)CC2)C(C)(C)C)cc1 | – | 127 | – |
| Cc1ncsc1-c1ccc([C@H](C)NC(=O)[C@@H]2C[C@@H](O)CN2C(=O)[C@@H](NC(=O)CCCCCCCNC(=O)c2ccc(-c3cnc4ncc(Cc5ccc6ncccc6c5)n4n3)cc2F)C(C)(C)C)cc1 | 52.3 | 19 | Activity [7]: > 80% |
